Source: BindingDB's records for doi:10.1124/mol.57.3.642 (National Institute On Drug Abuse, 2000)
Where a name gives a salt, the structure may show the parent alone.

Columns and labels:
[1] = target: Nicotinic acetylcholine receptor (Rattus leucopus, UniProt Q62594)
[2] = target: Neuronal acetylcholine receptor subunit alpha-7 (Rattus norvegicus, UniProt Q05941)
[3] = target: Neuronal acetylcholine receptor subunit alpha-3 (Rattus norvegicus, UniProt P04757)
[4] = target: Neuronal acetylcholine receptor subunit alpha-4 (Rattus norvegicus, UniProt P09483)
Chain of Neuronal acetylcholine receptor subunit alpha-4 (P09483 whole entry): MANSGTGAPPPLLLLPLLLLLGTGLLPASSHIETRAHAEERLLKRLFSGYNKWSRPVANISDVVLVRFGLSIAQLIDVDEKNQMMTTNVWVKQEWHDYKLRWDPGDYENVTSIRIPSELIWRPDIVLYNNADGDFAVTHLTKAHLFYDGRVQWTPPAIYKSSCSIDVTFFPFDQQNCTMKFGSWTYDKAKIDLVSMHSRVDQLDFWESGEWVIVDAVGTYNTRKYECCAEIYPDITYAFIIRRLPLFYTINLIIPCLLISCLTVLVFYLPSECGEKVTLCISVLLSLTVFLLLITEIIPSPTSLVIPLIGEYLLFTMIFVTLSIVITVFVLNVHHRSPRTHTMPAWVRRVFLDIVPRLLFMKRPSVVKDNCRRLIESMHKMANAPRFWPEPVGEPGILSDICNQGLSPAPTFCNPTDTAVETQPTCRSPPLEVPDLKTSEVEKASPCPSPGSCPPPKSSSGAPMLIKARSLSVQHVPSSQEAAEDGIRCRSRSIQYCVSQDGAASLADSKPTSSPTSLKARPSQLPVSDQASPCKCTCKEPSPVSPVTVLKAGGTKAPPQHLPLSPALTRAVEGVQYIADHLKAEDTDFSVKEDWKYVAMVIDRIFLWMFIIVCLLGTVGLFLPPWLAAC

[5] = target: Neuronal acetylcholine receptor subunit alpha-9 (Rattus norvegicus, UniProt P43144)
Chain of Neuronal acetylcholine receptor subunit alpha-9 (P43144 whole entry): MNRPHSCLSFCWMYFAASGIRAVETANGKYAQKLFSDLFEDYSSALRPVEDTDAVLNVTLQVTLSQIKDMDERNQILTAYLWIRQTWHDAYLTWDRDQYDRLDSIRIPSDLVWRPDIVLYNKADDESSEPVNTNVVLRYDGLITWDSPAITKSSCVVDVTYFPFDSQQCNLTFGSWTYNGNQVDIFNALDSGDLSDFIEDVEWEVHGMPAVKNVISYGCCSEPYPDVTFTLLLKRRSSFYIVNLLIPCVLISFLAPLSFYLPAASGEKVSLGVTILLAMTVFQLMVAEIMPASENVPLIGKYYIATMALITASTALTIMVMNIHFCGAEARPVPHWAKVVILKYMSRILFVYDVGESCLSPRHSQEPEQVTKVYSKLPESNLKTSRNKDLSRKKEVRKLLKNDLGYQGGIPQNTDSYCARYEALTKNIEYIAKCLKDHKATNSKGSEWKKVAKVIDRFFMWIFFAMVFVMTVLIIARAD

Chain of Nicotinic acetylcholine receptor (Q62594 whole entry): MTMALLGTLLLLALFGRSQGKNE
Chain of Neuronal acetylcholine receptor subunit alpha-7 (Q05941 whole entry): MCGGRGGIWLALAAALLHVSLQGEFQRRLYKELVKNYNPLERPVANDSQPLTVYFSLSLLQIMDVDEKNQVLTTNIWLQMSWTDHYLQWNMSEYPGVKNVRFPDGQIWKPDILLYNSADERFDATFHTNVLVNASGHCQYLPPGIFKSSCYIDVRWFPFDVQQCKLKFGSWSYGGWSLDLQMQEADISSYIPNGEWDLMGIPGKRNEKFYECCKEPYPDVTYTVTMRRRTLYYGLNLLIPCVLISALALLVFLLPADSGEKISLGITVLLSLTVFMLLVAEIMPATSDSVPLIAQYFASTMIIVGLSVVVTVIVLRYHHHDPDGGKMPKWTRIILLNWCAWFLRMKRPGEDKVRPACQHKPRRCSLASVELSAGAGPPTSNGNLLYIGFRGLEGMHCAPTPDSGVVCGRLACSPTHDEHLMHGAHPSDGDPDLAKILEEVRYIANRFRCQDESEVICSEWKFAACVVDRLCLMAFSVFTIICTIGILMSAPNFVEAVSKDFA
Chain of Neuronal acetylcholine receptor subunit alpha-3 (P04757 whole entry): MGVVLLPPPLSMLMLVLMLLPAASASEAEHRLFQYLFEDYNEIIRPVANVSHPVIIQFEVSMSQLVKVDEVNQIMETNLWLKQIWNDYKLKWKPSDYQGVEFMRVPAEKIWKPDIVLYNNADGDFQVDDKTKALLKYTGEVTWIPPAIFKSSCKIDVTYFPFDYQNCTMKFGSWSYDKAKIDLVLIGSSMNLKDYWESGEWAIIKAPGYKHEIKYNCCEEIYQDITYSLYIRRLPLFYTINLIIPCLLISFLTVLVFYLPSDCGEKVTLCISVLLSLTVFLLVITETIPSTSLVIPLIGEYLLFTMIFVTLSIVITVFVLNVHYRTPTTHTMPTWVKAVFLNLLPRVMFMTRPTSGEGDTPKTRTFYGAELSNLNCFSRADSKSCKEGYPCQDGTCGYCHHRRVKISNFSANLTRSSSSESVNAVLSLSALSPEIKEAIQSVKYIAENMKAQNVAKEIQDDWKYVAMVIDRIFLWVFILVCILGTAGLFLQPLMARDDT

Structure (SMILES) | Ki [1] | Ki [2] | Ki [3] | Ki [4] | Ki [5]
CNC(=O)Oc1ccc2c(c1)[C@]1(C)CCN(C)C1N2C (stereo partly drawn) | > 10000 nM |  |  |  | 
CN1[C@@H]2CC[C@H]1CC(OC(=O)[C@H](CO)c1ccccc1)C2 (stereo partly drawn) [CAS_51-55-8] | > 10000 nM |  |  |  | 
Ic1ccc(C2CC3CCC2N3)cn1 (stereo not drawn) [IPH] |  | 30 nM | 0.11 nM | 0.02 nM | 6.5 nM
O=C(CCCN1CCC(O)(c2ccc(Cl)cc2)CC1)c1ccc(F)cc1 [4-[4-(4-Chloro-phenyl)-4-hydroxy-piperidin-1-yl]-1-(4-fluoro-phenyl)-butan-1-one;propionate(HCl)] | > 10000 nM |  |  |  | 
O=c1cccc2n1C[C@H]1CNC[C@H]2C1 [(1S,9R)-7,11-diazatricyclo[7.3.1.0~2,7~]trideca-2,4-dien-6-one] |  | 260 nM | 54 nM | 0.18 nM | 190 nM
COc1cc2c3cc1Oc1cc(ccc1O)CC1c4c(cc(OC)c(O)c4Oc4ccc(cc4)CC3[N+](C)(C)CC2)CC[N+]1(C)C (stereo not drawn) [CAS_8063-06-7] | 730 nM |  |  |  | 
C=C(C=O)C[C@H]1C[C@H](O)[C@]2(C)O[C@@H]3C[C@@H]4O[C@@H]5C[C@]6(C)O[C@]7(C)CC[C@@H]8O[C@@H]9C[C@]%10(C)O[C@@H]%11C(C)=CC(=O)O[C@H]%11C[C@H]%10O[C@H]9C[C@@H](C)[C@H]8O[C@H]7C[C@H]6O[C@@]5(C)C/C=C\[C@H]4O[C@H]3C[C@H]2O1 | 2500 nM |  |  |  | 
CN1CCc2cccc3c2[C@H]1Cc1ccc(O)c(O)c1-3 [APOKYN] | > 10000 nM |  |  |  | 
c1cncc(OC[C@@H]2CCN2)c1 |  | 17 nM |  | 0.01 nM | 320 nM
C=CCN1CC[C@]23c4c5ccc(O)c4O[C@H]2C(=O)CC[C@@]3(O)[C@H]1C5 [[17-(2,3-3H-2-propenyl)]-4,5a-epoxy-3,14-dihydroxymorphinan-6-one] | > 10000 nM |  |  |  | 
